Measurements taken from patent US5852003A, “Drug and pharmaceutical composition for the treatment of muscles” (Societe Valbiofrance, priority 1994, dated 1998).
Entries after “also recorded” stand apart in the source; their conditions may differ. One block for each molecule: values may come before it.

Columns and labels:
FGF 1 = assay: potentialization of FGF 1 biological activity, tritiated thymidine incorporation in CCL39 cells; assay type: cell-based
Description: (§1) The cells used in this example are CCL39 cells from the American Tissue Culture Collection. The conditions concerning culture and the measurement test of FGF biological activity are the same as those described in the publication by Tardieu and coll. in the Journal of Cellular Physiology, 1992. The FGF growth factors used are the FGF 1 and FGF 2 recombinant forms.
(§2) In these experiments, the FGF 1 or 2 is used at a dose corresponding to the effective dose (called ED50) in order to induce a stimulation of the biological activity of 50% of the dose inducing the maximum stimulation. The biological activity is measured by the ability to induce an increase of the incorporation of tritiated thymidine in the cells according to protocols extensively described in numerous publications such as the previously mentioned publication by Tardieu et coll. and also in French Patent 2 644 066. […] In addition to this ability to potentialize the biological activity of the FGFs, the HBGFPPs protect the FGFs against thermal degradations and the inactivation induced by the proteolytic action of trypsin (FIGS. 3 to 5). Similarly, these HBGFPPs protect FGF1 and 2 against an inactivation induced by the proteolytic activity of trypsin (5A and 5B).

beta TGF = molecular target: T1, beta TGF (Homo sapiens, UniProt P01137); assay: protection of beta TGF against degradation by trypsin, beta TGF activity read on CCL64 cells; assay type: cell-based; settings: for % inhibiting activity of the incorporation of tritiated thymidine in CCL64 cells: 37° C. 10 min, dilution 50 times
T1 construct: from tissue; host or cells: human blood platelets
Method: In order to measure the capacity of certain CMDBSs to interact with members of the beta TGF family and, by means of this interaction, to protect the beta TGFs, a grading test was devised.
The beta 1 TFG is prepared from human blood platelets according to a protocol described in numerous publications (for example Growth factors and their receptors, 1992, vol 1 pp 419-472, written by A. Roberts and M. Sporn, edited by A. Roberts and M. Sporn, and published by Springer Verlag Berlin) and are commonly used by persons of ordinary skill in the art. The beta TGF biological activity test used in this example is that of the inhibition of CCL64 cells (from the American Tissue Culture Collection). This inhibition is measured by the ability of the beta TGF to inhibit the incorporation of tritiated thymidine in a dose dependent manner in these CCL64 cells stimulated by the FGF or by fetal calf serum according to the protocol described by Van Zolen in Progress in Growth Factor Research, 1990, 2, pp 131 to 152.
Two doses of beta TGF are used, one corresponding to the 50% inhibition capacity of the incorporation of tritiated thymidine (defined as the inhibiting activity unit) and the other corresponding to the 100% inhibition capacity.
The final volume of the incubated solution is adjusted to 1 ml and incubation is carried out at 37° C. for a varying length of time (10 minutes in the example described (Table 1)).
20 μl samples of are taken from each of the incubation reactions and added to CCL64 cells cultivated in 24-well plates, each well containing milliliter of culture medium according to the aforementioned protocol described by E. Zohlen. In these conditions, the final concentration of beta TGF per well is 1 ng/ml.
The incubation mixture contained 50 ng of beta TGF (in 0.1% bovine serum albumin) and trypsin (500 μg). Mesoglycan or sulodexide or dextran sulfate or dextran or sucrase are used at the dose of 5000 μg.
The beta TGF biological activity is measured as described above after a dilution of 50 times and by using CCL64 cells.

EDL muscles [1] = test system: EDL muscles
Method: The experiment was conducted on seven Wistar rats aged two and a half months and weighing three hundred grams.
After annesthesia by ether, the EDL muscles (muscles of hind rat paws) were removed from the forefoot and mechanically damaged by applying a constant pressure on the entire length of the muscle, using a Pean forceps. The pressure was maintained for fifteen seconds, the forceps being closed at the second notch. The homogeneity of the lesion on the whole of the muscle was controlled by following its infarction for 30 seconds. The muscle was then put back in position and the skin sutured by linen thread.
The regeneration controls were injected with the same quantity of PBS alone. Depending on the experiments, injection took place before or after the lesion of the muscle. The 200 μl were injected in one minute and the product's diffusion was ensured by leaving the muscle for two minutes before putting it back in the forefoot.
The treated muscles and the controls were collected after 8 days of regeneration and then immediately frozen at -150° C. in isopentane. Frozen transverse sections of 10 μm thickness were made in the median region of the muscle. The dried sections were colored by Gomori trichrome.
The morphometric analysis of the number of fibers and of their diameter was performed on micrographic montages corresponding to a transverse half-section of muscle.

FGF 2 = assay: potentialization of FGF 2 biological activity, tritiated thymidine incorporation in CCL39 cells; assay type: cell-based
Description: as §1, §2

FGF2 = assay: protection of FGF2 against thermal degradation, activity on CCL39 cells; assay type: cell-based; settings: 20 μg heparin, 10 μg mesoglycan or sulodexide; 20° C. and 37° C. for 1, 7, 15, 30 days
Method: (§3) (a) and 37° C. (b) for 1, 7, 15, 30 days. The measurement of the biological activity presented in abscissa corresponds to the stimulation unit values (ED50) of the incorporation of tritiated thymidine in CCL39 cells.
as §2

leukocytic elastase [2] = assay: inhibition of leukocytic elastase activity; assay type: biochemical; settings: 37° C., pH 8, elastase 8.3 nM, 0.10 mM MeO-Suc-Ala-Ala-Pro-Val-pNA
Method: The purified leukocytic elastase was obtained by Elastin Products Co (Owenville, Mo., U.S.A.) and the plasmin from SIGMA.
The enzymes under consideration are placed in solution in a 100 mM Tris-HCL buffer, pH 8 for the elastase and pH 7.4 for the plasmin, in the presence of 0.02% sodium azide and 0.01% Triton X100 for the plasmin. The substrate and enzyme concentrations are: 0.10 mM MeO-Suc-Ala-Ala-Pro-Val-pNA (paranitroanilide)for the elastase at 8.3 nM, and 0.20 mM dVal-Leu-dLys-pNA for the plasmin at 77 nM. The IC50 is determined for each of the conditions.
Batch EM5 corresponds to a T10 dextran of […]. The intermediate products of synthesis are identified by the symbols given above with an index number specifying the number of each substitution reaction.

FGF = assay: semi-quantitative evaluation of FGF protection against trypsin, densitometry of radio-labelled FGF; assay type: biochemical; settings: FGF + trypsin + polymer; radio-labelled FGF found compared to quantity deposited
Method: As described above, a constant quantity of radioactive FGF is incubated under various conditions. After autoradiography of the reaction products, the non degraded quantity of radioactive FGF is quantified by densitometry. The values correspond to the percentage of radio-labelled FGF found, compared to the quantity deposited at the start of reaction (Table 5).

125I-FGF2 = assay: protection of 125I-FGF2 against proteolytic degradation by trypsin, gel autoradiography; assay type: biochemical; settings: 37° C., FIG. 5B
Method: (§4) Proteolytic digestion was carried out at 37° C. and the samples were separated by 18% polyacrylamide gel electrophoresis. The gels are dried and autoradiographed. The first track contains the ^125 I-FGF1 on its own.
The arrangement of the tracks is identical to that presented for the ^125 I-FGF1 in FIG. 5A.

coagulation = assay: anticoagulant activity
FGF1 = assay: protection of FGF1 against thermal degradation, activity on CCL39 cells; assay type: cell-based; settings: 20 μg heparin, 10 μg mesoglycan or sulodexide; 20° C. and 37° C. for 1, 7, 15, 30 days
Method: as §3, §2

EDL muscles [3] = assay: regeneration of skeletal muscle after deinnervation followed by crushing; assay type: in vivo, Wistar rats; settings: for Ratio regenerated/ contralateral intact (muscle weight): 10 μg injected after deinnervation and crushing; for % ratio treated/ ratio degenerated: 10 μg injected, PBS-treated muscle = 100
Method: The protocol is exactly the same as that described in Example 4 but the crushing of the muscle is preceded by section of the motor nerve at the entrance of the muscle.
The substances are in saline phosphate buffer solution (PBS).
Injection takes place after deinnervation and crushing , using a 50 μl microsyringe equipped with a flexible needle 60 mm in length and 0.4 mm in diameter. Two injections are carried out at an interval of 2 min. The volume injected is therefore 100 μl. The sucrase […] was supplied free of charge by D. Bar Shalom Bulk Medic, Denmark.
After sacrifice of the animal, the EDL muscles of the treated paw and the contralateral paw are weighed. Since individual variations in the weight of normal muscles in animals of the same age can reach 20%, the results were standardized by calculating the ratio of the treated muscle to its contralateral intact control.
This ratio was considered to be 100% for the muscles treated by PBS alone. The degree of regeneration of muscles treated by the different substances was calculated in % of the muscle injected by PBS.

125I-FGF1 = assay: protection of 125I-FGF1 against proteolytic degradation by trypsin, gel autoradiography; assay type: biochemical; settings: 37° C., FIG. 5A
Method: as §4

leukocytic elastase [4] = settings: cited from earlier work
trypsin = trypsin enzymatic activity on substrate S.87
Method: The enzymatic activity of trypsin was measured by spectrophotometric absorption of the transformation product of S 87 in versus of the incubation time.

complement system = assay: anticomplement activity (CH50); settings: measured according to Mauzac et al.
[5] = beta TGF 50 ng + polymer 5000 μg + trypsin 500 μg
[6] = beta TGF 50 ng + polymer 5000 μg, no trypsin
[7] = single injection of 200 μl of 50 μ/ml, after 8 days of regeneration
[8] = 10 μg/ml mesoglycan or 20 μg/ml heparin, CCL39 cells

T1 sequence (P01137 279-390 limits assumed): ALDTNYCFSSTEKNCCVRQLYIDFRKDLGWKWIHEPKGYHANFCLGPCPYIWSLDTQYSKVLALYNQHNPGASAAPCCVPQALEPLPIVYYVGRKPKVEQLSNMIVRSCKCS

Molecule: FGF 1: FGF 1 recombinant form growth factor
ED50 of FGF 1 (FGF 1; FGF 1 alone, CCL39 cells): 5 ng/mL

Protection of the beta TGF (beta TGF biological activity) (beta TGF; [5]): 0%
Protection of the beta TGF (beta TGF biological activity) (beta TGF; [6]): 100%
Molecule: dextran sulfate
protection of the beta TGF against proteolysis induced by trypsin (in words) (beta TGF): neither sucrase, nor heparin nor dextran sulfate protect the beta TGF
Diameter of muscles (EDL muscles [1]; [7]): 3.9 ± 0.4 mm
Mean diameter of regenerated fibers (EDL muscles [1]; [7]): 28.2 ± 4.6
Number of fibers on a half-section (EDL muscles [1]; [7]): 418
muscular regeneration after crushing, macroscopic and histological findings (in words) (EDL muscles [1]; single injection, 8 days of regeneration): no qualitative or quantitative modification of muscular regeneration; also recorded: neither heparin nor dextran sulfate present properties on muscular regeneration

Leukocytic elastase IC50 (leukocytic elastase [2]): 1800 ng/mL
biological activity of the beta TGF still present (beta TGF; after 10 min of incubation at 37° C. with trypsin): less than 20%
% inhibiting activity of the incorporation of tritiated thymidine in CCL64 cells (beta TGF; [5]): 10%
% inhibiting activity of the incorporation of tritiated thymidine in CCL64 cells (beta TGF; [6]): 100%
% inhibiting activity of the incorporation of tritiated thymidine in CCL64 cells (beta TGF; polymer 5000 μg alone, no beta TGF, no trypsin): 0%
Molecule: heparin
ED50 of FGF 2 in the presence of the polymer (FGF 2; [8]): 0.2 ng/mL
potentialization of the biological activity of FGF2 (in words) (FGF 2; 20 μg of heparin, 10 μg of mesoglycan or 10 μg of sulodexide, FIG. 2B): potentialization of the biological activity
protective effect against thermal degradation of FGF2 (in words) (FGF2): protective effect
PROTECTION (in %) of the FGF (FGF): 100%
protective effect against proteolytic degradation of 125I-FGF2 (in words) (125I-FGF2): protective effect
anticoagulant activity (coagulation): 175 IU/mg
protection of the beta TGF against proteolysis induced by trypsin (in words) (beta TGF): neither sucrase, nor heparin nor dextran sulfate protect the beta TGF
protective effect against thermal degradation of FGF1 (in words) (FGF1): protective effect
Ratio regenerated/ contralateral intact (muscle weight) (EDL muscles [3]): 0.590
% ratio treated/ ratio degenerated (EDL muscles [3]): 86%
muscular repair and regeneration (in words) (EDL muscles [3]; rat, in vivo): neither heparin nor dextran sulfate present properties on muscular regeneration
ED50 of FGF 1 in the presence of the polymer (FGF 1; [8]): 0.4 ng/mL
potentialization of the biological activity of FGF1 (in words) (FGF 1; 20 μg of heparin, 10 μg of mesoglycan or 10 μg of sulodexide, FIG. 2A): potentialization of the biological activity
protective effect against proteolytic degradation of 125I-FGF1 (in words) (125I-FGF1): protective effect
Ki (leukocytic elastase [4]): ~1 nM

Molecule: FGF 2: FGF 2 recombinant form growth factor
ED50 of FGF 2 (FGF 2; FGF 2 alone, CCL39 cells): 3 ng/mL

Molecule: O=S(=O)(O)OC[C@H]1O[C@@](COS(=O)(=O)O)(O[C@H]2O[C@H](COS(=O)(=O)O)[C@@H](OS(=O)(=O)O)[C@H](OS(=O)(=O)O)[C@H]2OS(=O)(=O)O)[C@@H](OS(=O)(=O)O)[C@@H]1OS(=O)(=O)O [sucrase, sucrose octasulfate]
protection of the beta TGF against proteolysis induced by trypsin (in words) (beta TGF): neither sucrase, nor heparin nor dextran sulfate protect the beta TGF
Ratio regenerated/ contralateral intact (muscle weight) (EDL muscles [3]): 0.620
% ratio treated/ ratio degenerated (EDL muscles [3]): 87%

Molecule: carboxymethyl dextran benzylamide sulfonate [CMDBS]
inhibiting power on the activity of trypsin (in words) (trypsin): no inhibiting power
trypsin activity (trypsin; Trypsin 10 ug/ml + S87 + 5 ug/ml CMDBS): 100
trypsin activity (trypsin; Trypsin 10 ug/ml + S87 + 50 ug/ml CMDBS): 100
trypsin activity (trypsin; Trypsin 10 ug/ml + S87 + 500 ug/ml CMDBS): 100
anticomplement activity, CH50 (complement system): 1.1 µg
anticoagulant activity (coagulation): 4 IU/mg

Protection of the beta TGF (beta TGF biological activity) (beta TGF; [5]): 0%
Protection of the beta TGF (beta TGF biological activity) (beta TGF; [6]): 100%
Molecule: dextran

B1: STBI: trypsin inhibitor originating from soya, from Sigma (protein, UniProt P01070 25-205, looked up)
Trypsin inhibitor A: DFVLDNEGNPLENGGTYYILSDITAFGGIRAAPTGNERCPLTVVQSRNELDKGIGTIISSPYRIRFIAEGHPLSLKFDSFAVIMLCVGIPTEWSVVEDLPEGPAVKIGENKDAMDGWFRLERVSDDEFNNYKLVFCPQQAEDDKCGDIGISIDHDDGTRRLVVSKNKPLVVQFQKLDKESL
trypsin activity (trypsin; Trypsin + S87 + STBI): 0
